Assay results reported in article PMC6112376, “Comprehensive Analyses and Prioritization of Tox21 10K Chemicals Affecting Mitochondrial Function by in-Depth Mechanistic Studies” (Environmental Health Perspectives, 2018).
Structures can show the parent of a compound that is named as a salt. Where two headings read alike, the source gives them in different places.

Experiments:
[1] = tested on: HepG2 cells; experiment: cells; conditions: Homo sapiens; for IC50: HepG2, read-out: MMP assays IC50 (µM) HepG2; for Emax: HepG2, read-out: MMP assays efficacy (%) HepG2
[2] = tested on: HepG2 cells; conditions: cited from earlier work
[3] = tested on: rat primary hepatocytes
[4] = tested on: rat primary hepatocytes; experiment: MMP assay in rat primary hepatocytes; conditions: for IC50: Rattus norvegicus, Hepatocyte, read-out: MMP assays IC50 (µM) Rat Hepatocytes
[5] = read-out: MMP assays IC50 (µM) qHTS-HepG2
[6] = read-out: MMP assays IC50 (µM), qHTS-HepG2

SMILES: C[C@]12CC[C@H]3C(=CCc4cc(O)ccc43)[C@@H]1CCC2=O [Equilin]
- IC50 [1]: 31.6 µM
- Emax [1]: 126%
- MMP assays efficacy (%) qHTS-HepG2 [2]: -97±4%
- IC50 [2, 5]: 24.3 ± 4.6 µM
- MMP assays efficacy (%) Rat Hepatocytes [3]: -47±10%
- IC50 [4]: 39.1 ± 15.5 µM

SMILES: COc1ccc(C(c2ccc(OC)cc2)C(Cl)(Cl)Cl)cc1 [Methoxychlor]
- IC50 [1]: 28.2 µM
- Emax [1]: 88%
- MMP assays efficacy (%) qHTS-HepG2 [2]: -101±17%
- IC50 [2, 6]: 26.3 ± 8.69 µM
- MMP assays efficacy (%) Rat Hepatocytes [3]: -75±11%
- IC50 [4]: 27.7 ± 11 µM

SMILES: O=C(Nc1cccc(Cl)c1)OCC#CCCl [Barban]
- IC50 [1]: 25.1 µM
- Emax [1]: 87%
- MMP assays efficacy (%) qHTS-HepG2 [2]: -116±9%
- IC50 [2, 5]: 22.5 ± 4.1 µM
- MMP assays efficacy (%) Rat Hepatocytes [3]: -68±37%
- IC50 [4]: 36 ± 7.53 µM

SMILES: O=Nc1ccc(O)cc1 [Compound 4-Nitrosophenol]
- IC50 [1]: 15.8 µM
- Emax [1]: 61%
- MMP assays efficacy (%) qHTS-HepG2 [2]: -87±9%
- IC50 [2, 5]: 4.71 ± 2.31 µM
- MMP assays efficacy (%) Rat Hepatocytes [3]: inactive
- MMP assays IC50 (µM) Rat Hepatocytes [4]: inactive

SMILES: CO/N=C(/C1=NOCCO1)c1ccccc1Oc1ncnc(Oc2ccccc2Cl)c1F [Fluoxastrobin]
- IC50 [1]: 11.2 µM
- Emax [1]: 72%
- MMP assays efficacy (%) qHTS-HepG2 [2]: -81±29%
- IC50 [2, 6]: 45.8 ± 15 µM
- MMP assays efficacy (%) Rat Hepatocytes [3]: -105±24%
- IC50 [4]: 37.9 ± 19.3 µM

SMILES: O=S1(=O)OCC2C(CO1)C1(Cl)C(Cl)=C(Cl)C2(Cl)C1(Cl)Cl (centres unmarked) [Endosulfan sulfate]
- IC50 [1]: 17.8 µM
- Emax [1]: 103%
- MMP assays efficacy (%) qHTS-HepG2 [2]: -123±10%
- IC50 [2, 5]: 16 ± 2.05 µM
- MMP assays efficacy (%) Rat Hepatocytes [3]: -80+6%
- IC50 [4]: 25.8 ± 10.1 µM

SMILES: N#CC(C#N)=NNc1cccc(Cl)c1 [Carbonyl cyanide chlorophenylhydrazone]
- IC50 [1]: 0.25 µM
- Emax [1]: 96%
- IC50 [2, 5]: 0.15 ± 0.04 µM
- MMP assays efficacy (%) Rat Hepatocytes [3]: inactive
- MMP assays IC50 (µM) Rat Hepatocytes [4]: inactive

SMILES: CO[C@H]1[C@@H](O)C[C@H](O[C@H]2[C@@H](O)C[C@H](O[C@H]3[C@@H](O)C[C@H](O[C@H]4CC[C@@]5(C)[C@H](CC[C@@H]6[C@@H]5C[C@@H](O)[C@]5(C)[C@@H](C7=CC(=O)OC7)CC[C@]65O)C4)O[C@@H]3C)O[C@@H]2C)O[C@@H]1C [Methyldigoxin]
- IC50 [1]: 0.24 µM
- Emax [1]: 99%
- MMP assays efficacy (%) qHTS-HepG2 [2]: -71±5%
- IC50 [2, 6]: 0.73 ± 0.09 µM
- MMP assays efficacy (%) Rat Hepatocytes [3]: inactive
- MMP assays IC50 (µM) Rat Hepatocytes [4]: inactive

SMILES: CCC/C=C/C=C/C(=O)O[C@H]1/C(=C/C(=O)OC)C[C@H]2C[C@H]([C@@H](C)O)OC(=O)C[C@H](O)C[C@@H]3C[C@H](OC(C)=O)C(C)(C)[C@](O)(C[C@@H]4C/C(=C/C(=O)OC)C[C@H](/C=C/C(C)(C)[C@]1(O)O2)O4)O3 [Bryostatin 1]
- IC50 [1]: 0.001 µM
- Emax [1]: 92%
- MMP assays efficacy (%) qHTS-HepG2 [2]: -105±21%
- IC50 [2, 5]: 0.01 ± 0.01 µM
- MMP assays efficacy (%) Rat Hepatocytes [3]: -46±21%
- IC50 [4]: 0.79 ± 1.07 µM

SMILES: C[C@@]12C(=O)OC(=O)[C@]1(C)[C@H]1CC[C@@H]2O1 [Cantharidin]
- IC50 [1]: 0.12 µM
- Emax [1]: 98%
- MMP assays efficacy (%) qHTS-HepG2 [2]: -67±9%
- IC50 [2, 5]: 0.15 ± 0.08 µM
- MMP assays efficacy (%) Rat Hepatocytes [3]: -91±63%
- IC50 [4]: 0.45 ± 0.3 µM

SMILES: CCC(C)c1ccccc1O (centres unmarked) [2-(Butan-2-yl)phenol]
- IC50 [1]: 25.1 µM
- Emax [1]: 32%
- MMP assays efficacy (%) qHTS-HepG2 [2]: -82±8%
- IC50 [2, 5]: 49.5 ± 9.45 µM
- MMP assays efficacy (%) Rat Hepatocytes [3]: inactive
- MMP assays IC50 (µM) Rat Hepatocytes [4]: inactive

SMILES: CC(C)(C)c1cc(O)c(C(C)(C)C)cc1O [2,5-Di-tert-butylbenzene-1,4-diol]
- IC50 [1]: 7.94 µM
- Emax [1]: 98%
- MMP assays efficacy (%) qHTS-HepG2 [2]: -107±12%
- IC50 [2, 5]: 7.41 ± 1.27 µM
- MMP assays efficacy (%) Rat Hepatocytes [3]: -73±5%
- IC50 [4]: 39.1 ± 15.5 µM

SMILES: Cc1c(O)cccc1C(=O)N[C@@H](CSc1ccccc1)[C@H](O)CN1C[C@H]2CCCC[C@H]2C[C@H]1C(=O)NC(C)(C)C [Nelfinavir mesylate]
- IC50 [1]: 30.8 µM
- Emax [1]: 97%
- MMP assays efficacy (%) qHTS-HepG2 [2]: -120±19%
- IC50 [2, 6]: 11.9 ± 6.92 µM
- MMP assays efficacy (%) Rat Hepatocytes [3]: -61±48%
- IC50 [4]: 8.68 ± 12.2 µM
